Read-outs that look alike come from different tables or passages of the source.
What was measured:
Format in all cases: cell-based
[1] = tested on: Human cervical adenocarcinoma cells Hela; assay: Cell proliferation experiment (Alarm blue, 72 h, EC50); details: Homo sapiens
Outline: (§1)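 Log-phase cells, passaged at least 2 generations, were seeded in 96-well plates and exposed to test compound in complete medium as a 5-fold dilution series in duplicate for 72 h. Fluorescence was read by Alamar blue and EC50 fitted to a four-parameter curve (Min, Max, Slope).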

[2] = tested on: Human Monocytic Leukemia MV4-11; assay: as above; details: Homo sapiens, MV4-11, MV4;11 cells
Outline: as §1

BRD4 = target: T1, BRD4 (Homo sapiens, UniProt O60885); assay: Western blot, protein degradation (DC50)
T1 construct: endogenous in cells
Experimental: (§2) Cells were treated with the compound for a period of time, after that the cells were collected by centrifugation. After washing with PBS, the cells were lysed by adding RIPA buffer; the cell lysate were added to the loading buffer and then appropriate volume were taken and slowly added to the corresponding wells of the gel plate, and run the SDS-PAGE gel (4%-12%). After running the gel, transferred to the PVDF membrane and sealed with 5% skimmed milk powder at room temperature for 1 hour. The membrane was placed in the primary antibody diluted with 5% skimmed milk powder and shaked slowly overnight at 4° C. After incubation with primary antibody, the membrane was washed 3 times using a TBST shaker; added secondary antibody diluted with 5% skimmed milk powder corresponding to the primary antibody, and shaked slowly at room temperature for 1 hour. After incubation with secondary antibody, the membrane was washed 3 times using the TBST shaker again. The PVDF membrane was flatted in the cassette, the strip was evenly infiltrated with ECL developer solution, and placed in ChemDoc XRS+ gel imager for taking pictures. The intensity of protein bands was analyzed quantitatively using ImageJ software.

PLK1 = target: T2, PLK1 (Homo sapiens, UniProt P53350); assay: Western blot, protein degradation (DC50); details: 6 h, read-out: PLK1 DC50 (6 h)
T2 construct: endogenous in cells
T2 sequence (P53350 whole entry): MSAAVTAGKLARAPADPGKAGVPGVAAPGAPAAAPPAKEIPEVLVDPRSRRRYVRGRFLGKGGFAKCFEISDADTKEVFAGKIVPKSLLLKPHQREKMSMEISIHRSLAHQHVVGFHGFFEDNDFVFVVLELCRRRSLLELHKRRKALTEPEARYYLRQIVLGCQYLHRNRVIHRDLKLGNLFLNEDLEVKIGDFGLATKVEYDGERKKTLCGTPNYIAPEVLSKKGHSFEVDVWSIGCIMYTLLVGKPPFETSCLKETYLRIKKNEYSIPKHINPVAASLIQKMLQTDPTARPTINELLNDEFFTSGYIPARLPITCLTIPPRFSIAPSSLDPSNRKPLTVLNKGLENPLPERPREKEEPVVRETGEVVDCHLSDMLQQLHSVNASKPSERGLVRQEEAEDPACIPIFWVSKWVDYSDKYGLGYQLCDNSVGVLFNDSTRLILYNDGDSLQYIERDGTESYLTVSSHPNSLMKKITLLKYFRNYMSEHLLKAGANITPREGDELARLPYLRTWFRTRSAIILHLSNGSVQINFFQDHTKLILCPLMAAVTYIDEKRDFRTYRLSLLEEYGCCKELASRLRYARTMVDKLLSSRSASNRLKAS
Experimental: as §2

[3] = tested on: Human Colon Cancer HCT-116; assay: Cell proliferation experiment (Alarm blue, 72 h, EC50); details: Homo sapiens, HCT-116; HCT116 cells
Outline: as §1

## CC[C@@H]1c2nncn2-c2cnc(Nc3ccc(C(=O)NCCCOCC(=O)Nc4cccc5c4CN(C4CCC(=O)NC4=O)C5=O)cc3OC)nc2N1C1CCCC1 (stereo partly drawn) [UB-180510]
[1]
  EC50: > 1 µM
[2]
  EC50: > 1 µM

## CC[C@@H]1c2c(C#N)ncn2-c2cnc(Nc3ccc(C(=O)NCCCCOCC(=O)Nc4cccc5c4CN(C4CCC(=O)NC4=O)C5=O)cc3OC)nc2N1C1CCCC1 (stereo partly drawn) [UB-180512]
[1]
  EC50: > 1 µM
[2]
  EC50: 0.1 to 1 µM

## CC[C@@H]1c2nncn2-c2cnc(Nc3ccc(C(=O)NCCOCCOCCOCC(=O)N[C@H](C(=O)N4C[C@H](O)C[C@H]4C(=O)NCc4ccc(-c5scnc5C)cc4)C(C)(C)C)cc3OC)nc2N1C1CCCC1 [UB-180516]
[1]
  EC50: > 1 µM
[2]
  EC50: > 1 µM

## CC[C@@H]1c2c(C#N)ncn2-c2cnc(Nc3ccc(C(=O)NCCOCC(=O)Nc4cccc5c4CN(C4CCC(=O)NC4=O)C5=O)cc3OC)nc2N1C1CCCC1 (stereo partly drawn) [UB-180518]
[1]
  EC50: > 1 µM
[2]
  EC50: > 1 µM

## CC[C@@H]1c2c(C#N)ncn2-c2cnc(Nc3ccc(C(=O)NCCOCCOCCOCC(=O)N[C@H](C(=O)N4C[C@H](O)C[C@H]4C(=O)NCc4ccc(-c5scnc5C)cc4)C(C)(C)C)cc3OC)nc2N1C1CCCC1 [UB-180519]
[1]
  EC50: > 1 µM
[2]
  EC50: 0.01 to 0.1 µM

## CC[C@@H]1C(=O)N(C)c2cnc(Nc3ccc(C(=O)NCCNc4cccc5c4CN(C4CCC(=O)NC4=O)C5=O)cc3OC)nc2N1C1CCCC1 (stereo partly drawn) [UB-180567]
BRD4; 6 h, western blot, read-out: BRD4 DC50 (6 h)
  DC50: > 1 µM
PLK1; western blot
  DC50: > 1 µM
[2]
  EC50: 0.01 to 0.1 µM

## CC[C@@H]1C(=O)N(C)c2cnc(Nc3ccc(C(=O)NCCCNc4cccc5c4C(=O)N(C4CCC(=O)NC4=O)C5=O)cc3OC)nc2N1C1CCCC1 (stereo partly drawn) [UB-180579]
BRD4; 6 h, read-out: BRD4 DC50 (6 h)
  DC50: 0.1 to 1 µM
PLK1
  DC50: 0.1 to 1 µM
[2]
  EC50: 0.01 to 0.1 µM

## CC[C@@H]1c2c(C#N)ncn2-c2cnc(Nc3ccc(C(=O)NCCOCCOCCOCC(=O)Nc4cccc5c4C(=O)N(C4CCC(=O)NC4=O)C5=O)cc3OC)nc2N1Cc1ccc(Br)cc1 (stereo partly drawn) [UB-180594]
BRD4; 6 h, read-out: BRD4 DC50 (6 h)
  DC50: > 1 µM
PLK1
  DC50: > 1 µM

## CC[C@@H]1C(=O)N(C)c2cnc(Nc3ccc(C(=O)NCCOCCOCCOCC(=O)N[C@H](C(=O)N4C[C@H](O)C[C@H]4C(=O)NCc4ccc(-c5scnc5C)cc4)C(C)(C)C)cc3OC)nc2N1Cc1ccc(Br)cc1 [UB-180601]
BRD4; 6 h, read-out: BRD4 DC50 (6 h)
  DC50: > 1 µM
PLK1
  DC50: > 1 µM

## CC[C@@H]1C(=O)N(C)c2cnc(Nc3ccc(C(=O)NCCOCCOCCOCCC(=O)N[C@H](C(=O)N4C[C@H](O)C[C@H]4C(=O)NCc4ccc(-c5scnc5C)cc4)C(C)(C)C)cc3OC)nc2N1Cc1ccc(Br)cc1 [UB-180602]
BRD4; 6 h, read-out: BRD4 DC50 (6 h)
  DC50: > 1 µM
PLK1
  DC50: > 1 µM

## O=C1CCC(N2Cc3c(NC(=O)CCOCCCOCCOCCNC(=O)c4ccc(Nc5ncc6c(n5)-c5ccc(Cl)cc5C(c5c(F)cccc5F)=NC6)cc4)cccc3C2=O)C(=O)N1 (stereo not drawn) [UB-180610]
[2]
  EC50: 0.01 to 0.1 µM
[3]
  EC50: > 1 µM

## O=C1CCC(N2Cc3c(NC(=O)CCOCCCOCCOCCNC(=O)[C@]4(Cc5cccc(Nc6nccs6)n5)CC[C@@H](Oc5cccc(Cl)c5F)CC4)cccc3C2=O)C(=O)N1 (stereo partly drawn) [UB-180611]
[2]
  EC50: 0.01 to 0.1 µM
[3]
  EC50: > 1 µM

## O=C1CCC(N2Cc3c(NC(=O)CCNC(=O)[C@]4(Cc5cccc(Nc6nccs6)n5)CC[C@@H](Oc5cccc(Cl)c5F)CC4)cccc3C2=O)C(=O)N1 (stereo partly drawn) [UB-180616]
[2]
  EC50: > 1 µM
[3]
  EC50: > 1 µM

## O=C1CCC(N2Cc3c(NC(=O)CCNC(=O)c4ccc(Nc5ncc6c(n5)-c5ccc(Cl)cc5C(c5c(F)cccc5F)=NC6)cc4)cccc3C2=O)C(=O)N1 (stereo not drawn) [UB-180617]
[2]
  EC50: > 1 µM
[3]
  EC50: > 1 µM

## CC[C@@H]1C(=O)N(C)c2cnc(Nc3ccc(C(=O)NCCCOCC(N)COCCC(=O)Nc4cccc5c4CN(C4CCC(=O)NC4=O)C5=O)cc3OC)nc2N1C1CCCC1 (stereo partly drawn) [UB-180624]
BRD4; 24 h, read-out: BRD4 DC50 (24 h)
  DC50: < 0.01 µM
[2]
  EC50: 0.01 to 0.1 µM

## Cc1sc2c(c1C)C(c1ccc(Cl)cc1)=N[C@@H](CC(=O)NCCCNCCCCCCC(=O)Nc1cccc3c1CN(C1CCC(=O)NC1=O)C3=O)c1nnc(C)n1-2 (stereo partly drawn) [UB-180629]
[2]
  EC50: 0.1 to 1 µM
[3]
  EC50: > 1 µM

## Cc1sc2c(c1C)C(c1ccc(Cl)cc1)=N[C@@H](CC(=O)NCCCNCCCCCCCC(=O)Nc1cccc3c1CN(C1CCC(=O)NC1=O)C3=O)c1nnc(C)n1-2 (stereo partly drawn) [UB-180630]
[2]
  EC50: 0.1 to 1 µM
[3]
  EC50: > 1 µM

From patent US20210369853A1, “TARGETED PROTEASE DEGRADATION PLATFORM” (EUBULUS BIOTHERAPEUTICS INC., priority 2018, published 2021)
